# Structures can show the parent of a compound that is named as a salt.
# Key:
# [1] = log D; format: physicochemical
# [2] = target: 5-HT2AR (Homo sapiens, UniProt P28223); test: 5-HT2A receptor binding affinity
# [3] = target: 5-HT7R (Homo sapiens, UniProt P34969); test: 5-HT7 receptor binding affinity
# [4] = test system: GW mice; test: Intestinal pain (visceromotor response to colorectal distension) in mice with Giardia postinfection plus water avoidance stress (GW); format: in vivo, C57BL/6 mice; conditions: for intestinal pain (VMR): p.o. single dose 5 mg/Kg, 90 minutes before analysis
# Excerpt: Two animal models of IBS that had shown visceral hypersensitivity were used in the study, including dual challenge of postinfection combined with psychological stress, and post-inflammation. In the first model, mice were divided into two groups, including one group subjected to dual triggers of Giardia postinfection and water avoidance stress (GW) and the one group pair-fed with saline and non-handled (PN) as uninfected unstressed normal controls. Axenic Giardia lamblia trophozoites (strain GS/M, ATCC 50581) were cultured in vitro and harvested at log-phase as described in Singer et al., (T-cell-dependent control of acute Giardia lamblia infections in mice. Infect. Immun. 2000; 68:170-175) and Davids et al. (Polymeric immunoglobulin receptor in intestinal immune defense against the lumen-dwelling protozoan parasite Giardia. J Immunol 2006; 177:6281-6290). Mice were orally gavaged with 10^7 Giardia trophozoites suspended in 0.2 ml of sterile phosphate-buffered saline (PBS) or pair-fed with the same volume of PBS. The status of Giardia infection was verified after 4-7 days by enumeration of motile trophozoites in the small intestine following a cold-shock protocol (disclosed in Scott K G, Yu L C H, Buret A G. Role of CD8+ and CD4+ T lymphocytes in jejunal mucosal injury during murine giardiasis. Infect. Immun. 2004; 72:3536-3542 and Scott K G, Meddings J B, Kirk D R, et al. Intestinal infection with Giardia spp. reduces epithelial barrier function in a myosin light chain kinase-dependent fashion. Gastroenterology 2002; 123:1179-1190). On the sixth week postinfection in which the trophozoites could not be detected in the small intestine (post-clearance phase), mice were subjected to chronic psychological stress. The procedure of WAS involved placing the mouse on a platform (3×6 cm) in the center of a container (56×50 cm) with 3 cm (vertical height) of room temperature water. Mice remained on the platform for 1 hr to avoid water immersion as a psychological stress without physical harm. The 1-hr stress sessions were carried out for 10 consecutive days to mimic chronic repeated stress, and were performed between 9:00 and 12:00 to minimize the effect of the circadian rhythm. Uninfected and unstressed non-handled animals were kept in their cages as normal controls. On the last day of the stress session, intestinal pain was measured in mice.
# For testing of anti-nociceptive effects in the GW model, mice were administered novel 5-HT7R ligands by a single dose 90 or 240 minutes prior to intestinal pain measurement. In additional settings, the novel ligands were repeatedly administered for 10 consecutive days 30 minutes before the start of each stress session and intestinal pain was measured immediately after the last stress session.
# Abdominal pain was measured by visceromoter response (VMR) to colorectal distension (CRD) in mice following previously described methods with slight modification (Lu C L, Hsieh J C, Dun N J, et al. Estrogen rapidly modulates 5-hydroxytrytophan-induced visceral hypersensitivity via GPR30 in rats. Gastroenterology 2009; 137:1040-1050; Hong S, Zheng G, Wu X, et al. Corticosterone mediates reciprocal changes in CB 1 and TRPV1 receptors in primary sensory neurons in the chronically stressed rat. Gastroenterology 2011; 140:627-637 e4). Briefly, electrodes made from Teflon-coated stainless steel wire (A-M systems, Carlsborg, Wash.) were implanted in the abdominal external oblique muscles of mice at least 15 days prior to VMR experiments. The electrodes were exteriorized onto the back of the neck. Mice were habituated in the plexiglass cylinder for 30 minutes per day for 3 consecutive days before VMR experiments. The cylinder was used for partial restraint of conscious mice during the CRD experiments. For recording, electrodes were connected to an electromyogram acquisition system (AD instruments, New south wales, Australia). […]
# [5] = test system: TNBS mice; test: Intestinal pain (visceromotor response to colorectal distension) in post-TNBS colitis mice; format: in vivo, C57BL/6 mice; conditions: for intestinal pain (VMR): p.o. single dose 5 mg/kg, 90 minutes before analysis
# Procedure: In the second model, intestinal inflammation was induced by intracolonic administration of 10% 2,4,6-trinotrobenzene sulfonic acid (TNBS) in 0.2 ml of 50% ethanol (Sigma-Aldrich, St. Louis, Mo., USA) via a 22-gauge feeding needle. Sham controls were given PBS in the same volume. Intestinal inflammatory parameters and pain levels were measured on various time points after TNBS administration.
# For testing of anti-nociceptive effects in the post-TNBS model, mice were administered with novel 5-HT7R ligands by a single dose at 90 or 240 minutes before or by repeated administration of multiple doses for 10 consecutive days prior to intestinal pain measurement.
# Abdominal pain was measured by visceromoter response (VMR) to colorectal distension (CRD) in mice following previously described methods with slight modification (Lu C L, Hsieh J C, Dun N J, et al. Estrogen rapidly modulates 5-hydroxytrytophan-induced visceral hypersensitivity via GPR30 in rats. Gastroenterology 2009; 137:1040-1050; Hong S, Zheng G, Wu X, et al. Corticosterone mediates reciprocal changes in CB 1 and TRPV1 receptors in primary sensory neurons in the chronically stressed rat. Gastroenterology 2011; 140:627-637 e4). Briefly, electrodes made from Teflon-coated stainless steel wire (A-M systems, Carlsborg, Wash.) were implanted in the abdominal external oblique muscles of mice at least 15 days prior to VMR experiments. The electrodes were exteriorized onto the back of the neck. Mice were habituated in the plexiglass cylinder for 30 minutes per day for 3 consecutive days before VMR experiments. The cylinder was used for partial restraint of conscious mice during the CRD experiments. For recording, electrodes were connected to an electromyogram acquisition system (AD instruments, New south wales, Australia). The colon was distended by inflating a balloon catheter inserted intra-anally such that it ended 1.5 cm proximal to the anus. Mice were subjected to […] 10-second distensions (15, 40, and 65 mmHg) with 3-min rest intervals. The electromyographic (EMG) activity was amplified and digitized using a transducer (AD instruments) connected to a P511 AC amplifier (Grass instruments, Calif., USA) and Powerlab device with Chart 5 software (AD instruments). The EMG activity was rectified, and the response was recorded as the increase in the area under the curve (AUC) of the EMG amplitude during CRD versus the baseline period.
# [6] = test system: colonic tissues; test: Colonic histology (adverse response) after treatment in GW and TNBS mice
# Excerpt: Intestinal tissues were fixed in 4% paraformaldehyde (PFA) and embedded in paraffin wax with proper orientation of the crypt to villus axis before sectioning. Sections of 5-μm thickness were deparaffinized with xylene and graded ethanol, stained with hematoxylin and eosin (H&E), and observed under a light microscope.
# Sequence of 5-HT2AR (P28223 whole entry): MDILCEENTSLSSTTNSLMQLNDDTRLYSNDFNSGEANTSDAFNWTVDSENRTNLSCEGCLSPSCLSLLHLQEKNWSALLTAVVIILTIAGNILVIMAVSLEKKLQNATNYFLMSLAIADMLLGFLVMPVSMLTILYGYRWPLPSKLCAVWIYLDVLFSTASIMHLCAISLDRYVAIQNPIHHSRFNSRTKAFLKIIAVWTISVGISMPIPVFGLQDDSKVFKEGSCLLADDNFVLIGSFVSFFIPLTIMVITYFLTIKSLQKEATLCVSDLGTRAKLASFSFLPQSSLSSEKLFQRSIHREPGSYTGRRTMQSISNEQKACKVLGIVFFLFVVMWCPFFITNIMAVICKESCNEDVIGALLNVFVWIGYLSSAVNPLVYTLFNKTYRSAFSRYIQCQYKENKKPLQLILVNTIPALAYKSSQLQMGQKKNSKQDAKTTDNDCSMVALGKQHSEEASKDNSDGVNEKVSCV
# Sequence of 5-HT7R (P34969 whole entry): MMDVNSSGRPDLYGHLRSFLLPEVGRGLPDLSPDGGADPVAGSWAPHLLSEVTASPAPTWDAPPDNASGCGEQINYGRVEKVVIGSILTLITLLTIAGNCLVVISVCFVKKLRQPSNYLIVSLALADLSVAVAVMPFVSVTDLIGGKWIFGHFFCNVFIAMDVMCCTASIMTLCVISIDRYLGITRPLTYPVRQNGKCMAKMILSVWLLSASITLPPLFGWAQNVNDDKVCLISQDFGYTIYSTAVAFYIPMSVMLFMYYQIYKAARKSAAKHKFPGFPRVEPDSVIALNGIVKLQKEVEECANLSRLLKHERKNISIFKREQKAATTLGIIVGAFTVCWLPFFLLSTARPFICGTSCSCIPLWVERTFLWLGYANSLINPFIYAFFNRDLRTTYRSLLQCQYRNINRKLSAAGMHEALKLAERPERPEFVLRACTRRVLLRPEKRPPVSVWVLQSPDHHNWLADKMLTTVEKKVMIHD
Compound,logD [1],Ki [2] [nM],Ki [3] [nM],intestinal pain (VMR) ([4]; GW mice),intestinal pain (VMR) [5],other results
"COc1ccccc1-c1c(O)c(OC)cc2c1CN(CCCc1cccnc1)CC2 [Compound 9, 6-methoxy-8-(2-methoxyphenyl)-2-(3-(pyridin-3-yl)propyl)-1,2,3,4-tetrahydroisoquinolin-7-ol]",1.7,> 1000,4.9,–,–,–
"COc1ccccc1-c1c2c(cc(OC)c1OC)CCN(CCCc1ccncc1)C2 [Compound 10, 6,7-dimethoxy-8-(2-methoxyphenyl)-2-(3-(pyridin-4-yl)propyl)-1,2,3,4-tetrahydroisoquinoline]",2.93,> 1000,7.1,–,–,–
"COc1ccccc1-c1c(O)c(OC)cc2c1CN(CCCc1ccncc1)CC2 [Compound 8, 6-methoxy-8-(2-methoxyphenyl)-2-(3-(pyridin-4-yl)propyl)-1,2,3,4-tetrahydroisoquinolin-7-ol]",1.68,> 1000,5.8,strongest inhibition of intestinal pain to baseline levels,–,"intestinal pain, time response ([4]; GW mice, 5 mg/kg p.o. at 1.5, 4 or 12 hours prior to pain measurement): Reduction of pain levels was seen at three time points; intestinal pain, dose response ([4]; GW mice, i.p. at 0.05 and 0.5 mg/kg, 90 minutes before analysis (FIG. 9A)): Dose-dependent analgesic effects; intestinal pain, dose response ([4]; GW mice, p.o. at 1.5 and 5 mg/kg, 90 minutes before analysis (FIG. 9B)): Dose-dependent analgesic effects; intestinal pain after repeated administration ([4]; GW mice, p.o. multiple doses over 10 days): decreased intestinal pain in GW mice in a dose-dependent manner; intestinal pain after repeated administration ([5]; multiple doses): reduced intestinal pain"
"Cc1[nH]cnc1CN1CCc2c(c3ccccc3n2C)C1=O [ALN, alosetron hydrochloride]",–,–,–,reduced intestinal pain but was less efficient compared to compound 8,had no effect on intestinal pain,"mice with hyperemia and granulocyte infiltration in the colonic tissues ([6]; C57BL/6, mouse, in vivo): 14%; colonic histology ([6]; p.o. 5 mg/Kg, GW and TNBS mice, hydrochloride, 5 mg/kg): Hyperemia (*) and granulocyte infiltration (arrowheads) were observed"
"CN(C)C(=O)C(CCN1CCC(O)(c2ccc(Cl)cc2)CC1)(c1ccccc1)c1ccccc1 [LPM, loperamide hydrochloride, reference compound]",–,–,–,had no effect on intestinal nociception,had no effect on intestinal pain,–
COc1ccc(-c2c(O)c(OC)cc3c2CN(CCc2ccccc2F)CC3)c(OC)c1 [Compound 6],3.98,2.2,3.5,–,–,–
"CC1CCN(CC[C@H]2CCCN2S(=O)(=O)c2cccc(O)c2)CC1.Cl [SB7, SB-269970 hydrochloride, reference compound]",–,–,–,had no effect on intestinal nociception,had no effect on intestinal pain,"intestinal pain measured by VMR ([4]; i.p., 0.5 mg/Kg, IBS-like mouse model (FIG. 7)): significantly inhibited intestinal pain levels"
"COc1ccccc1-c1c(O)c(OC)cc2c1CN(CCCc1ccc([N+](=O)[O-])cc1)CC2 [Compound 7, 6-methoxy-8-(2-methoxyphenyl)-2-(3-(4-nitrophenyl)propyl)-1,2,3,4-tetrahydroisoquinolin-7-ol]",3.66,70,1.4,–,–,–

# — patent publication US11505529B2, “8-phenyl-isoquinolines and pharmaceutical composition thereof used in the treatment of irritable bowel syndrome” (NATIONAL TAIWAN UNIVERSITY, priority 2017, dated 2022)
